According to patent US20230052189A1, “TREATMENT OF PRIMARY BILIARY CHOLANGITIS WITH ELAFIBRANOR” (Genfit, priority 2020, published 2023):

Columns and labels:
patients with PBC = settings: Nevens et al. 2016; cited from earlier work
subjects with PBC [1] = experiment: Phase 2 study: change from baseline in pruritus visual analogue scale (VAS); format: in vivo, human; settings: for median relative change from baseline to Endpoint in the pruritus VAS: placebo −7.1%
Method: (§1) The study was a Phase 2, double-blind, randomized, parallel group, placebo-controlled study, designed to evaluate the efficacy and safety of elafibranor at doses of 80 mg or 120 mg daily vs placebo in an adult PBC population. This study projected to randomize approximately 45 subjects to 3 treatment groups in a 1:1:1 ratio (elafibranor 80 mg, elafibranor 120 mg, or placebo).
(§2) Subject participation was planned to be a maximum of 20 weeks. The study was comprised of 3 periods: a Screening Period, a Treatment Period, and a Follow-up Period. The Screening Period (Week −4 to Week −1) preceded the 12-week double-blind Treatment Period.
Considering that pruritus is a preeminent adverse event in subjects with PBC, assessment of pruritus was also considered. More specifically, the change from baseline in pruritus (through 5D-itch scale (measuring the degree, duration, direction [improvement or worsening], disability [effect on daily activities], and distribution of itching) and visual analogue scale for pruritus (VAS).
The 5D-itch scale is a reliable, multidimensional measure of itching that has been validated in patients with chronic pruritus to detect changes over time (Elman S, et al., The 5-D itch scale: a new measure of pruritus. Br J Dermatol. 2010; 162(3):587-593.). The VAS is a reliable and validated method of pruritus assessment (Reich A, et al., Visual analogue scale: evaluation of the instrument for the assessment of pruritus. Acta Derm Venereol.2012; 92(5):497-501).
Pruritus scoring values and absolute changes from baseline are provided for each domain of the 5D-itch scale (duration, degree, direction, disability, and distribution) and for the VAS by subject and by visit; baseline and Endpoint values are flagged in this listing; total scores at each visit are also summarized in this listing.

subjects with PBC [2] = experiment: Phase 2 study: tolerability and safety (TEAEs, pruritus worsening); format: in vivo, human; settings: for percentage of subjects reporting TEAEs (Treatment-Emergent Adverse Events): placebo 80.0%
Method: as §1, §2
The tolerability and safety of once-per-day oral administration of elafibranor in 80-mg and 120-mg doses in subjects with PBC was assessed as follows: • Physical examination • Vital signs • Medical history • ECG • Hematological parameters • Liver markers • Other biochemical safety parameters

subjects with PBC [3] = experiment: Phase 2 study: pruritus (itching) domain of PBC-40 quality of life questionnaire; format: in vivo, human; settings: for median absolute change from baseline to Endpoint in the pruritus/itching domain of PBC-40: placebo 0.0; for median relative change from baseline to Endpoint in the pruritus/itching domain of PBC-40: placebo 0%; for mean absolute change from baseline to Endpoint in the pruritus (itching) domain of PBC-40: placebo 2.1
Method: as §1, §2

subjects with PBC [4] = experiment: Phase 2 double-blind placebo-controlled study: change from baseline in serum ALP; format: in vivo, human; settings: for treatment effect estimate vs placebo, relative change in serum ALP (supportive analysis): ANCOVA with baseline ALP as covariate; for treatment effect estimate vs placebo, relative change in serum ALP (primary analysis): non-parametric randomization-based ANCOVA with baseline ALP as covariate, p<0.001; for mean relative change (%) from baseline to Endpoint in serum ALP: 12-week treatment, placebo 3.2%
Method: as §1, §2
A decrease in ALP levels is recognized as a particularly relevant surrogate marker for the treatment of PBC. Consequently the primary endpoint of the study is to evaluate the efficacy of elafibranor 80 mg or 120 mg with respect to relative change from baseline in serum ALP levels compared to placebo.

[5] = 80 mg and 120 mg treatment groups

Q: Which pruritus adverse event (patients with PBC) does the source give for `CC[C@H]1[C@@H](O)[C@@H]2[C@H](CC[C@]3(C)[C@@H]([C@H](C)CCC(=O)O)CC[C@@H]23)[C@@]2(C)CC[C@@H](O)C[C@@H]12` [OCA, obeticholic acid] here?
A: severe pruritus has been reported

Q: Which “median pruritus VAS from baseline through Week 12 (trend)” value (subjects with PBC [1]; [5]) does the source give for `CSc1ccc(C(=O)C=Cc2cc(C)c(OC(C)(C)C(=O)O)c(C)c2)cc1` [elafibranor, 2-(2,6-dimethyl-4-{3-[4-(methylsulfanyl)phenyl]-3-oxopropen-1-yl}phenoxy)-2-methylpropanoic acid] here?
A: declining median VAS as early as Week 2

Q: What about the “median relative change from baseline to Endpoint in the pruritus VAS” value (subjects with PBC [1]; 80 mg) of the same compound?
A: −23.7%

Q: What about the “median relative change from baseline to Endpoint in the pruritus VAS” value (subjects with PBC [1]; 120 mg) of the same compound?
A: −49.5%

Q: What about the “safety and tolerability in patients” value (subjects with PBC [2]; 80 mg and 120 mg) of the same compound?
A: safe and well-tolerated

Q: And the worsening of pruritus (subjects with PBC [2]; 80 mg and 120 mg)?
A: no worsening of pruritus

Q: And the “percentage of subjects reporting TEAEs (Treatment-Emergent Adverse Events)” value (subjects with PBC [2]; 80 mg)?
A: 80.0%

Q: What about the “percentage of subjects reporting TEAEs (Treatment-Emergent Adverse Events)” value (subjects with PBC [2]; 120 mg) of the same compound?
A: 86.7%

Q: And the “median absolute change from baseline to Endpoint in the pruritus/itching domain of PBC-40” value (subjects with PBC [3]; 80 mg)?
A: −1.0

Q: What about the “median relative change from baseline to Endpoint in the pruritus/itching domain of PBC-40” value (subjects with PBC [3]; 80 mg) of the same compound?
A: −25.0%

Q: What about the “mean absolute change from baseline to Endpoint in the pruritus (itching) domain of PBC-40” value (subjects with PBC [3]; 80 mg) of the same compound?
A: −0.9

Q: And the “median absolute change from baseline to Endpoint in the pruritus/itching domain of PBC-40” value (subjects with PBC [3]; 120 mg)?
A: −1.0

Q: And the “median relative change from baseline to Endpoint in the pruritus/itching domain of PBC-40” value (subjects with PBC [3]; 120 mg)?
A: −20.8%

Q: And the “mean absolute change from baseline to Endpoint in the pruritus (itching) domain of PBC-40” value (subjects with PBC [3]; 120 mg)?
A: −4.1

Q: What about the “change from baseline in serum ALP vs placebo at Endpoint (significance)” value (subjects with PBC [4]; [5]) of the same compound?
A: statistically significantly different from placebo

Q: And the “mean ALP values from baseline through Week 12 (trend)” value (subjects with PBC [4]; 80 mg and 120 mg treatment groups, 12 week study)?
A: declining mean ALP values

Q: And the “treatment effect estimate vs placebo, relative change in serum ALP (supportive analysis)” value (subjects with PBC [4]; 80 mg, 95% CI [−63.3, −39.5])?
A: −51.4%

Q: What about the “treatment effect estimate vs placebo, relative change in serum ALP (primary analysis)” value (subjects with PBC [4]; 80 mg, 95% CI [−62.5, −41.5]) of the same compound?
A: −52.0%

Q: What about the “treatment effect estimate vs placebo, relative change in serum ALP (supportive analysis)” value (subjects with PBC [4]; 120 mg, 95% CI [−55.8, −31.9]) of the same compound?
A: −43.9%

Q: What about the “treatment effect estimate vs placebo, relative change in serum ALP (primary analysis)” value (subjects with PBC [4]; 120 mg, 95% CI [−55.7, −32.1]) of the same compound?
A: −43.9%

Q: What about the “mean relative change (%) from baseline to Endpoint in serum ALP” value (subjects with PBC [4]; elafibranor 80 mg daily oral) of the same compound?
A: −48.3%

Q: And the “mean relative change (%) from baseline to Endpoint in serum ALP” value (subjects with PBC [4]; elafibranor 120 mg daily oral)?
A: −40.6%
